Laboratory results taken from patent US8178553B2, “Compounds for the treatment of inflammatory disorders” (Schering Corporation, priority 2006, dated 2012).
pKi: −log10 of the molar value.

Molecular target: T1, purified catalytic domain of recombinant human TACE (rhTACEc) (Homo sapiens, UniProt P78536, N452Q/S266A)
T1 construct: rhTACEc, Residue 215 to 477 with two mutation (S266A and N452Q) and a 6xHis tail; 6xHis (C); made in house; host or cells: baculovirus/Hi5 insect cells
Assay: TACE kinetic assay, cleavage of internally quenched fluorescent peptide substrate SPDL-3
Type: biochemical
Conditions: not given
Procedure: TACE activity is determined by a kinetic assay measuring the rate of increase in fluorescent intensity generated by TACE catalyzed cleavage of an internally quenched peptide substrate (SPDL-3). […] It is purified from the baculovirus/Hi5 cells expression system using affinity chromatography. […] MCA is (7-Methoxycoumarin-4-yl)acetyl. Dpa is N-3-(2,4-Dinitrophenyl)-L-2,3-diaminopropionyl.
A 50 μl assay mixture contains 20 mM HEPES, pH 7.3, 5 mM CaCl2, 100 µM ZnCl2, 2% DMSO, 0.04% Methylcellulose, 30 μM SPDL-3, 70 pM rhTACEc and a test compound. RhTACEc is pre-incubated with the testing compound for 90 min. at 25° C. Reaction is started by addition of the substrate. […] Rate of enzymatic reaction is shown as Units per second. Effect of a test compound is shown as % of TACE activity in the absence of the compound.

T1 sequence (P78536 215-477 S266A/N452Q): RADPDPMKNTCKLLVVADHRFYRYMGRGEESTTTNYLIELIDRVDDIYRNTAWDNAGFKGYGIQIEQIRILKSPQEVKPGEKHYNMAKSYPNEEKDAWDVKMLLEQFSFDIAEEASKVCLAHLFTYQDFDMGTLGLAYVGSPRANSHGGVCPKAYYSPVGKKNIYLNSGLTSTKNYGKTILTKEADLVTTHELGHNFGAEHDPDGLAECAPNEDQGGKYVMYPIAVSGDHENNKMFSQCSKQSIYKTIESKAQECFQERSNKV

SMILES | pKi
COc1ccc2c(c1)C(=O)N(C[C@@]1(c3ccc(OC(=O)N(C)C)cc3)NC(=O)NC1=O)C2 [Compound 93] | > 8.00

Same assay, conditions: Specific TACE inhibitory activity of representative compounds; read-out: Ki

pKi | SMILES
9.18 | COc1ccc2c(c1)C(=O)N(C[C@@]1(c3ccc(-c4cccc(C(N)=O)n4)cc3)NC(=O)NC1=O)C2 [Compound 76]
8.40 | CNC(=O)c1ccc(Oc2ccc([C@]3(CN4Cc5ccc(OC)cc5C4=O)NC(=O)NC3=O)cc2)cc1 [Compound 84]
9.34 | COc1ccc2c(c1)C(=O)N(C[C@@]1(c3ccc(Oc4cccc(C(N)=O)c4)cc3)NC(=O)NC1=O)C2 [Compound 85]
9.41 | COc1ccc2c(c1)C(=O)N(C[C@@]1(c3cc4cc(/C=N/O)ccc4o3)NC(=O)NC1=O)C2 [Compound 97]
9.15 | COc1ccc2c(c1)C(=O)N(C[C@@]1(c3cc4cc(C(N)=O)cnc4o3)NC(=O)NC1=O)C2 [Compound 98]

Same assay, conditions: TACE inhibition, Table 1; read-out: Ki Rating

SMILES | pKi
CNC(=O)c1cccc(Oc2ccc([C@]3(CN4Cc5ccc(OC)cc5C4=O)NC(=O)NC3=O)cc2)c1 [Compound 89] | > 8.00
COc1ccc2c(c1)C(=O)N(C[C@@]1(c3ccc(Oc4cccc(C(=O)NCCN(C)C)c4)cc3)NC(=O)NC1=O)C2 [Compound 90] | > 8.00
CC#CCOc1ccc([C@]2(CN3Cc4ccc(OC)cc4C3=O)NC(=O)NC2=O)cc1 [Compound 91] | > 8.00
COc1ccc2c(c1)C(=O)N(C[C@@]1(c3ccc(OCC#CCO)cc3)NC(=O)NC1=O)C2 [Compound 92] | > 8.00
COc1ccc2c(c1)C(=O)N(C[C@@]1(c3ccc(C#Cc4cccnc4)cc3)NC(=O)NC1=O)C2 [Compound 94] | > 8.00
COc1ccc2c(c1)C(=O)N(C[C@]1(c3ccc(C#Cc4cccnc4)cc3)NC(=O)NC1=O)C2 [Compound 95] | 7.00 to 8.00
COc1ccc2c(c1)C(=O)N(CC1(c3ccc(-c4ccccc4CCN)cc3)NC(=O)NC1=O)C2 (stereo not shown) [Compound 96] | 7.00 to 8.00
COc1ccc2c(c1)C(=O)N(C[C@@]1(c3ccc(C(=O)N4CCOCC4)cc3)NC(=O)NC1=O)C2 [Compound 99] | > 8.00
COc1ccc2c(c1)C(=O)N(C[C@@]1(c3ccc(C(=O)O)cc3)NC(=O)NC1=O)C2 [Compound 100] | > 8.00
COc1ccc2c(c1)C(=O)N(C[C@@]1(c3ccc(C#N)cc3)NC(=O)NC1=O)C2 [Compound 101] | > 8.00
COc1ccc2c(c1)C(=O)N(C[C@@]1(c3cc4cc(C#N)ccc4o3)NC(=O)NC1=O)C2 [Compound 102] | > 8.00
COc1ccc2c(c1)C(=O)N(C[C@@]1(c3ccc(C(N)=O)cc3)NC(=O)NC1=O)C2 [Compound 103] | > 8.00
COc1ccc2c(c1)C(=O)N(C[C@@]1(c3ccc(-c4cccnc4C#N)cc3)NC(=O)NC1=O)C2 [Compound 104] | > 8.00
COc1ccc2c(c1)C(=O)N(C[C@@]1(c3ccc(-c4ccc(S(N)(=O)=O)cc4)cc3)NC(=O)NC1=O)C2 [Compound 105] | > 8.00

The remaining lines, values ahead:

pKi | SMILES
> 8.00 | COc1ccc2c(c1)C(=O)N(C[C@@]1(c3ccc(-c4cc(C#N)ccn4)cc3)NC(=O)NC1=O)C2 [Compound 73]
> 8.00 | COC(=O)c1ccnc(-c2ccc([C@]3(CN4Cc5ccc(OC)cc5C4=O)NC(=O)NC3=O)cc2)c1 [Compound 74]
> 8.00 | COc1ccc2c(c1)C(=O)N(C[C@@]1(c3ccc(-c4ccc(C(N)=O)nc4)cc3)NC(=O)NC1=O)C2 [Compound 75]
> 8.00 | COc1ccc2c(c1)C(=O)N(C[C@@]1(c3ccc(-c4cccc(C(N)=O)n4)cc3)NC(=O)NC1=O)C2 [Compound 76]
> 8.00 | CCOC(=O)c1n[nH]c2ccc(-c3ccc([C@]4(CN5Cc6ccc(OC)cc6C5=O)NC(=O)NC4=O)cc3)cc12 [Compound 77]
> 8.00 | COc1ccc2c(c1)C(=O)N(C[C@@]1(c3ccc(-c4ccc5[nH]nc(C(N)=O)c5c4)cc3)NC(=O)NC1=O)C2 [Compound 78]
> 8.00 | COc1ccc2c(c1)C(=O)N(C[C@@]1(c3ccc(-c4cnn(C)c4C#N)cc3)NC(=O)NC1=O)C2 [Compound 80]
> 8.00 | COc1ccc2c(c1)C(=O)N(C[C@@]1(c3ccc(-c4cccc(C#N)c4)cc3)NC(=O)NC1=O)C2 [Compound 81]
> 8.00 | COc1ccc2c(c1)C(=O)N(C[C@@]1(c3ccc(Oc4ccc(C(=O)N5CCOCC5)cc4)cc3)NC(=O)NC1=O)C2 [Compound 82]
> 8.00 | COc1ccc2c(c1)C(=O)N(C[C@@]1(c3ccc(Oc4ccc(C(=O)NCCN(C)C)cc4)cc3)NC(=O)NC1=O)C2 [Compound 83]
> 8.00 | CNC(=O)c1ccc(Oc2ccc([C@]3(CN4Cc5ccc(OC)cc5C4=O)NC(=O)NC3=O)cc2)cc1 [Compound 84]
> 8.00 | COc1ccc2c(c1)C(=O)N(C[C@@]1(c3ccc(Oc4cccc(C(N)=O)c4)cc3)NC(=O)NC1=O)C2 [Compound 85]
> 8.00 | COC(=O)c1cccc(Oc2ccc([C@]3(CN4Cc5ccc(OC)cc5C4=O)NC(=O)NC3=O)cc2)c1 [Compound 86]
> 8.00 | COc1ccc2c(c1)C(=O)N(C[C@@]1(c3ccc(Oc4cccc(C(=O)N5CCOCC5)c4)cc3)NC(=O)NC1=O)C2 [Compound 87]
> 8.00 | COc1ccc2c(c1)C(=O)N(C[C@@]1(c3ccc(Oc4cccc(C(=O)N(C)C)c4)cc3)NC(=O)NC1=O)C2 [Compound 88]
> 8.00 | COc1ccc2c(c1)C(=O)N(C[C@@]1(c3cc4cc(/C=N/O)ccc4o3)NC(=O)NC1=O)C2 [Compound 97]
> 8.00 | COc1ccc2c(c1)C(=O)N(C[C@@]1(c3cc4cc(C(N)=O)cnc4o3)NC(=O)NC1=O)C2 [Compound 98]
